Data taken from patent US20050123936A1, “Method, composition, and kit to design, evaluate, and/or test compounds that modulate regulatory factor binding to nucleic acids” (priority 2003, published 2005).
Blank lines part the entries; values can stand above or below the molecule they belong to. Ends that are not written are not given here. Hoechst 33258 analog = not defined here

Experiments:
[1] = target: T1, extradenticle (Exd) protein (residues 238-324) (Drosophila melanogaster, UniProt P40427); assay: EMSA: recruitment of Exd to its cognate DNA site by polyamides 1-3; format: binding; settings: saturating 50 nM compound, Exd 0-100 nM
T1 construct: comprising the homeodomain and the extended fourth helix (residues 238-324); made in house
T1 sequence (P40427 238-324): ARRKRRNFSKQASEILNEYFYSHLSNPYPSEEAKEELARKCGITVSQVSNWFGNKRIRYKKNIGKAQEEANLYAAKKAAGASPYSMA
Excerpt: (§1) Protein expression: Drosophila extradenticle (Exd) protein comprising the homeodomain and the extended fourth helix (residues 238-324), as well as ultrabithorax (Ubx) protein homeodomain (residues 233-313 of the Ubx isoform IVa) were expressed and purified after Passner & Aggarwal. The purified proteins Exd and Ubx were used for EMSA studies as described below.
(§2) For the templates, the DNA oligonucleotides depicted in FIGS. 2a, 2b, 2c, and 2d were used, SEQ. ID NOS: 5, 6, 7, and 8, respectively. The DNA upper strand was annealed with the respective matching lower strand and both strands were 5′-labeled with γ-^32P-ATP and polynucleotide kinase, using standard procedures.
Gel-shift experiments: The master mix contained 50% BSA/50% glycerol, reaction buffer (150 mM potassium glutamate, 50 mM HEPES pH 7.0, 1 mM DTT, and 5′-end labeled DNA (^32P) The final concentrations in the samples were 100 ng/μL BSA and 10% glycerol. Polyamides were kept in subdued lighting whenever possible. Upon addition of the polyamide to 1 pM DNA, the samples were incubated at 25 °C. for 30 minutes in a 20 μL reaction. Next, Exd was added to the samples and incubated for 1 hour at 4° C. A 9% acrylamide/3% glycerol gel was pre-run for 15 min prior to loading. In each lane 15 μL of a 20 μL reaction were loaded while the gel was running to prevent the samples from being diluted. The gels were run at 4° C./185 V. Gels were dried, exposed to a phosphorimager screen, and visualized using a Molecular Dynamics phosphorimager.
FIGS. 3a and 3b: EMSA studies with polyamides 1-3, Exd and Ubx. In FIG. 3a, each polyamide binds and decreases the mobility of free DNA (lanes 2-18). […] In lanes 2-6,8-12, 14-18, Exd was added in following concentrations: 0, 3, 10, 30, 100 nM. Lanes 19 and 20 contained DNA bearing the Exd-Ubx binding site that was used in X-ray crystal structure determination (see methods above for sequence). In the reaction shown in lane 20, 275 nM Ubx and 30 nM Exd were incubated with DNA. […]

[2] = target: TGGTCA matched site on 250-bp EcoRI/PvuII restriction fragment from plasmid pDEH9; assay: Quantitative DNase I footprint titration, matched site; format: binding; settings: 12 h at 22° C., TKMC buffer pH 7.0, read-out: Equilibrium Dissociation Constants Kd, TGGTCA
Procedure: (§3) Quantitative DNaseI footprinting can be used to determine the equilibrium association constants for binding to match and mismatch sites. Footprinting experiments are generally performed on 3′- and/or 5′-^32P end restriction fragments derived from plasmids. 3′-shifted cleavage patterns are consistent with location of the polyamide in the minor groove. Typical reaction conditions are: 10 mM Tris-HCl, 10 mM KCl, 10 mM MgCl2, 5 mM CaCl2, pH 7.0, and 22° C. See Brenowitz et al. (1986). Methods Enzymol. 130:132-181; Fox & Waring (1984) Nucleic Acids Res. 12:9271-9285; and Brenowitz et al. (1986) Proc. Natl. Acad. Sci. U.S.A. 83: 8462-8466.
DNase I Footprinting: Dissociation constants for the DNA binding of compounds 1, 2 and 3 were obtained following published protocols. All reactions were carried out in 400 μL total volume employing 20 kcpm of a 3′-radiolabelled 250-bp restriction fragment from the plasmid pDEH9 (FIG. 1a) (SEQ. ID. NO: 4). […]
FIGS. 1b, 1c, and 1d are quantitative DNAse I footprint titration experiments for compounds 1, 2 and 3 on the 3′^−32 P-labeled 250-bp EcoRI/PvuII restriction fragment from the plasmid pDEH9. […]
The DNA-binding properties of the compounds 1-3 were investigated by quantitative DNase 1 footprinting assays. […]

[3] = test system: TGGGCA mismatch site on 250-bp EcoRI/PvuII restriction fragment from plasmid pDEH9; assay: Quantitative DNase I footprint titration, mismatch site TGGGCA; format: binding
Procedure: as §3
(§4) DNase I Footprinting: Dissociation constants for the DNA binding of compounds 1, 2 and 3 were obtained following published protocols. All reactions were carried out in 400 μL total volume employing 20 kcpm of a 3′-radiolabelled 250-bp restriction fragment from the plasmid pDEH9 (FIG. 1a) (SEQ. ID. NO: 4). No carrier DNA was used in the equilibration, and the solutions were allowed to equilibrate for 12 h at 22° C. in TKMC buffer (10 mM TRIS, 10 mM KCl, […], 5 mM CaCl2 pH 7.0) prior to the DNase I digestion. Reaction products (8 kcpm) were resolved on denaturing 8% polyacrylamide sequencing gels run at 55 W.
(§5) FIGS. 1b, 1c, and 1d are quantitative DNAse I footprint titration experiments for compounds 1, 2 and 3 on the 3′^−32 P-labeled 250-bp EcoRI/PvuII restriction fragment from the plasmid pDEH9. Lane 1: Intact DNA. Lane 2: A-reaction. Lane 3: G-reaction. Lane 4: DNAse 1 standard.
(§6) The DNA-binding properties of the compounds 1-3 were investigated by quantitative DNase 1 footprinting assays. The equilibrium binding constants of each of the compounds for a matched versus three single base pair mismatch sites is compiled in Table 1. The lower strand sequence is shown in the header. Mismatched base pairs are underlined. The residue under the YPWM peptide is in bold. Relative specificities are given in square brackets.

Exd = target: T2, Exd (Drosophila melanogaster, UniProt P40427); assay: Example 7 EMSA: recruitment of Exd by linker compounds; format: binding
T2 construct: comprising the homeodomain and the extended fourth helix (residues 238-324); made in house
T2 sequence (P40427 238-324): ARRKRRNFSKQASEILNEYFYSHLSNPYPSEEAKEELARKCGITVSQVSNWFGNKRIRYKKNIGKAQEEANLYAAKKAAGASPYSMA
Procedure: The assays were performed with 50 nM of the conjugate pre-incubated with target DNA (thus to bind the anchor moiety to the target nucleic acid) followed by the addition and incubation with Exd.
To determine the effects of longer linker on binding, the ability of compounds using linkers 1, 2 and 4 to recruit Exd at three different temperatures was investigated.

[4] = test system: DNA duplex templates (FIG. 2a optimal; FIG. 2c mismatch in PA binding site); assay: EMSA: binding of polyamides to the DNA duplex templates; settings: even at 100 nM concentrations
Excerpt: as §2
FIGS. 2a, 2b, 2c and 2d show depict the DNA duplexes used for the EMSA studies. The binding site for the Exd protein is marked by a box, the polyamide or Hox protein binding site is shown in boldface, FIG. 2a depicts the optimal template. FIG. 2b depicts a 2-bp mismatch in the Exd site. FIG. 2c depicts a 2-hp mismatch in the PA binding site. FIG. 2d depicts a composite Ubx-Exd binding site (see Passner et al. (1999) Nature, 397:714-719). […]

[5] = test system: TGGCCA mismatch site on 250-bp EcoRI/PvuII restriction fragment from plasmid pDEH9; assay: Quantitative DNase I footprint titration, mismatch site TGGCCA; format: binding
Procedure: as §3, §4, §5, §6

[6] = test system: AGCTCA mismatch site on 250-bp EcoRI/PvuII restriction fragment from plasmid pDEH9; assay: Quantitative DNase I footprint titration, mismatch site AGCTCA; format: binding
Procedure: as §3, §4, §5, §6

double-stranded DNA = settings: Behrens et al. (2001); cited from earlier work
[7] = target: T3, extradenticle (Exd) protein (Drosophila melanogaster, UniProt P40427); assay: EMSA: Exd binding to the binary Ubx-DNA complex; settings: saturating concentrations of Ubx (325 nM)
T3 construct: comprising the homeodomain and the extended fourth helix (residues 238-324); made in house
T3 sequence (P40427 238-324): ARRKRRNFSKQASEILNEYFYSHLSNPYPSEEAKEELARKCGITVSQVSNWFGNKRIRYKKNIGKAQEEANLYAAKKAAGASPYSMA
Procedure: as §1
(§7) Gel-shift studies with the Ubx protein were performed under identical buffer conditions using the duplex oligonucleotide listed in FIG. 2d. Ubx was added to the reaction mixture containing ^32P-endlabeled duplex DNA and incubated at 4° C. for 30 min. Subsequently Exd was added and the reaction was further incubated for 60 min at 4° C. The complexes were resolved under similar gel conditions as those described for DNA-polyamide-Exd complexes above. […] Under saturating concentrations of Ubx (325 nM) the Kd of Exd for the binary [Ubx-DNA] complex was 2-3 fold larger than the affinity of Exd for the polyamide-DNA binary complex.

[8] = test system: duplex DNA with composite Ubx-Exd binding site (FIG. 2d); assay: EMSA: Ubx binding to its cognate DNA
Procedure: as §7

[9] = target: Ultrabithorax (Ubx) homeodomain, isoform IVa (Drosophila, UniProt P83949-5 P83949-5:233-313); assay: EMSA; Ubx alone; 150 mM K glutamate, 50 mM HEPES pH 7.0, 4 C; settings: label: 5'-32P both strands
Chain of Ultrabithorax (Ubx) homeodomain, isoform IVa (P83949 other isoform, or with tags, fused parts or gaps): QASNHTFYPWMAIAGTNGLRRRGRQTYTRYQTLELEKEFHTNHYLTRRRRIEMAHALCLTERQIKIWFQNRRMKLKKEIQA
Procedure: Gel-shift studies with the Ubx protein were performed under identical buffer conditions using the duplex oligonucleotide listed in FIG. 2d. Ubx was added to the reaction mixture containing ³²P-endlabeled duplex DNA and incubated at 4° C. for 30 min. […] The complexes were resolved under similar gel conditions as those described for DNA-polyamide-Exd complexes above.

[10] = relative to matched site TGGTCA

ability to recruit Exd to its cognate DNA site (Exd binding) ([1]; listed as Compound 2): capable of recruiting Exd to DNA
ability to recruit Exd to its cognate DNA site (Exd binding) ([1]; listed as compound 2): binds DNA with very high affinity
Kd [2]: 5.8 ± 0.8 nM
Relative specificity (square brackets), TGGGCA [3, 10]: 17
Kd ([3]; single base pair mismatch site, 22° C., TKMC buffer, read-out: Equilibrium Dissociation Constants Kd, TGGGCA): ≥ 0.1 nM
ability to recruit Exd (Exd; physiological temperatures (37° C.)): fails to do so effectively
ability to recruit Exd (Exd; room temperature (23° C.)): capable of recruiting Exd
binding to mutated template (polyamide-binding site eliminated) [4]: did not bind
Relative specificity (square brackets), TGGCCA [5, 10]: 1.4
Kd ([5]; single base pair mismatch site, 22° C., TKMC buffer, read-out: Equilibrium Dissociation Constants Kd, TGGCCA): 7.9 ± 1.6 nM
Relative specificity (square brackets), AGCTCA [6, 10]: 1.1
Kd ([6]; single base pair mismatch site, 22° C., TKMC buffer, read-out: Equilibrium Dissociation Constants Kd, AGCTCA): 6.4 ± 1.1 nM
Molecule: Cmpd 2 (FYPWMKG)

Molecule: Hoechst 33258 analog-KSPKKAKK polypeptide: Hoechst 33258 analog bonded to the N-terminus of the cationic polypeptide KSPKKAKK (Behrens et al.) ({Hoechst 33258 analog}-KSPKKAKK; reading uncertain)
higher affinity for double-stranded DNA than the Hoechst analog itself (double-stranded DNA): approximately 10 fold

Kd of Exd for the binary [Ubx-DNA] complex, larger than for the polyamide-DNA binary complex [7]: 2-3 fold
affinity of Ubx for its DNA site lower than that of compound 2 for its respective site [8]: ≥ 40 fold
Kd ([8]; 4° C.): 200 ± 25 nM
B1: Ubx: Drosophila ultrabithorax (Ubx) protein homeodomain (residues 233-313 of the Ubx isoform IVa) (protein, UniProt P83949 233-313, looked up, fragment)
chain: QASNHTFYPWMAIAGECPEDPTKSKIRSDLTQYGGISTDMGKRYSESLAGSLLPDWLGTNGLRRRGRQTYTRYQTLELEKE
modifications: isoform IVa

B2: Composite Ubx-Exd EMSA duplex (FIG. 2d) (dsDNA)
DNA 1: GATCTCCCGGCGAATGATTTATGGTATCGGCGCCACTGTCACCCGGA
DNA 2: TCCGGGTGACAGTGGCGCCGATACCATAAATCATTCGCCGGGAGATC
Kd [9]: 200 nM
